The target in series [1] is T1, α-glucosidase (Saccharomyces cerevisiae, UniProt P53341).
T1 construct: purchased Sigma-Aldrich
Description: Enzyme kinetics study (Michaelis-Menten, non-linear regression). The series is classed as biochemical. The note with it: inhibitor concentration 0.25 mM; for Vmax: substrate PNPG 0.1-5 mM. As to the method:
In the enzyme kinetics studies, the enzyme activity was measured at different times using different concentrations of the substrate p-nitrophenyl α-D-glucopyranoside (0.1, 0.2, 0.8, 1.0, 1.2, 1.6, 1.8, 2.0, 2.5, 5 mM). The kinetics of the enzymatic reaction were fit to the Michaelis‒Menten equation. The Michaelis‒Menten equation is as follows:V = Vmax[S]/(Km + [S]).
In this equation, [S] is the concentration of the substrate, Vmax is the maximum reaction velocity of the enzymatic reaction, and Km is the Michaelis constant. […] Non-linear fitting was performed with the help of Origin 8.5, which can calculate the Vmax and Km values. The Ki constant was determined as follows:Ki = [I]/(K’m/Km − 1).
In this formula, [I] is the concentration of inhibitor, K’m is the Michaelis constant of the experimental group, and Km is the Michaelis constant of the blank group.
The same protocol was followed for the experiments reported in Figure 1 except that the inhibitor concentration was 0.25 mM and the substrate concentration was varied as indicated (0.1, 0.2, 0.8, 1.0, 1.2, 1.6, 1.8, 2.0, 2.5, 5 mM). The Km and Vmax values were calculated using […], and then, the Ki value was calculated using the formula that was mentioned in Section 2.3.

Details of series [2]: method as in earlier work. The note with it: quickly metabolized and excreted; cited from earlier work.
Series [3] concerns the target T1, α-glucosidase. Description: In vitro assay of α-glucosidase inhibitory activity (PNPG, 96-well microplates). The series is classed as biochemical. To be noted: substrate PNPG, pH 6.8, 37 °C, read-out: IC50 (mM) ± SEM.
On the set-up of series [4]: method as in PMID 1475231. The note with it: rats, cited from earlier work.
The mark [5] stands for this setting: intravenous administration, biphasic reduction in plasma.

T1 sequence (P53341 whole entry): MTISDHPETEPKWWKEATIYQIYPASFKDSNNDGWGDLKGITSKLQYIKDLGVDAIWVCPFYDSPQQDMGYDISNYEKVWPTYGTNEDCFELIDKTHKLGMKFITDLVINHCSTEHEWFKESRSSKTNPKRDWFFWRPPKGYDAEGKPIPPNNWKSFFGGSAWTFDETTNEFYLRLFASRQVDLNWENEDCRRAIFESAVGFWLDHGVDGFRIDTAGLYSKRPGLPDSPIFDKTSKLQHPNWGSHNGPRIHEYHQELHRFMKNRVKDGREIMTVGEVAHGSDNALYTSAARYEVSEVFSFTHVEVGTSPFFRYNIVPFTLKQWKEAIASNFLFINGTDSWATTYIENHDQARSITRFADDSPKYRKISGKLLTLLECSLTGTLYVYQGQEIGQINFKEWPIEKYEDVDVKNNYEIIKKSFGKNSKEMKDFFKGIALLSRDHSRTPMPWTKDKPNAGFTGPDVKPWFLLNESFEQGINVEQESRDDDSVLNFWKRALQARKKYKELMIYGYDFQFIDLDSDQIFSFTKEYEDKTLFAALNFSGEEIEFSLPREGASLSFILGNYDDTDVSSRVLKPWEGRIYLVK

As to `C[C@H]1O[C@H](O[C@H]2[C@H](O)[C@@H](O)[C@@H](O[C@H]3[C@H](O)[C@@H](O)C(O)O[C@@H]3CO)O[C@@H]2CO)[C@H](O)[C@@H](O)[C@@H]1N[C@H]1C=C(CO)[C@@H](O)[C@H](O)[C@H]1O` (stereo partly shown) [Acarbose, reference compound], the Vmax in series [1] was 4.40 ± 0.42 *10^−6 mmol/min.

With `OC[C@H]1NC[C@H](O)[C@@H](O)[C@@H]1O` [Compound 1-DNJ, 1-deoxynojirimycin], in series [2], the “hypoglycaemic effect in vivo” value is listed as “no significant hypoglycaemic effect”.

The term IC50 denotes the concentration at which inhibition is half-maximal. For `OCC1C(O)C(O)C(O)CN1Cc1ccc(F)cc1` (stereo not shown) [Compound 12a, 1-(4-fluorobenzyl)-2-(hydroxymethyl) piperidine-3,4,5-triol], in series [3], the IC50 was 9.8 ± 0.31 mM.

Regarding `OCC1C(O)C(O)C(O)CN1Cc1ccc(Cl)cc1` (stereo not shown) [Compound 12b, 1-(4-chlorobenzyl)-2-(hydroxymethyl) piperidine-3,4,5-triol], in series [3], the IC50 turned out to be 11.22 ± 0.02 mM.

With `OCC1C(O)C(O)C(O)CN1Cc1ccc(Br)cc1` (stereo not shown) [Compound 12c, 1-(4-bromobenzyl)-2-(hydroxymethyl) Piperidine-3,4,5-triol], the IC50 in series [3] came to 12.55 ± 0.03 mM.

For the compound `OCC1C(O)C(O)C(O)CN1Cc1ccc(I)cc1` (stereo not shown) [Compound 12d, 2-(hydroxymethyl)-1-(4-iodobenzyl) Piperidine-3,4,5-triol], the IC50 in series [3] worked out at 9.88 ± 0.05 mM.

With `Cc1ccc(CN2CC(O)C(O)C(O)C2CO)cc1` (stereo not shown) [Compound 12e, 2-(hydroxymethyl)-1-(4-methylbenzyl) Piperidine-3,4,5-triol], the 50% inhibitory concentration (IC50) in series [3] was determined as 8.65 ± 0.08 mM.

With `COc1ccc(CN2CC(O)C(O)C(O)C2CO)cc1` (stereo not shown) [Compound 12f, 2-(hydroxymethyl)-1-(4-methoxybenzyl) Piperidine-3,4,5-triol], the IC50 in series [3] was determined as 1.02 ± 0.23 mM.

As for `OCC1C(O)C(O)C(O)CN1Cc1cccc(F)c1` (stereo not shown) [Compound 12g, 1-(3-fluorobenzyl)-2-(hydroxymethyl) Piperidine-3,4,5-triol], the IC50 in series [3] worked out at 10.23 ± 0.02 mM.

Take `OCC1C(O)C(O)C(O)CN1Cc1cccc(Cl)c1` (stereo not shown) [Compound 12h, 1-(3-chlorobenzyl)-2-(hydroxymethyl) Piperidine-3,4,5-triol]: the IC50 in series [3] came to 15.32 ± 0.04 mM.

As to `OCC1C(O)C(O)C(O)CN1Cc1cccc(Br)c1` (stereo not shown) [Compound 12i, 1-(3-bromobenzyl)-2-(hydroxymethyl) Piperidine-3,4,5-triol], the IC50 in series [3] was determined as 15.66 ± 0.04 mM.

On to `OCC1C(O)C(O)C(O)CN1Cc1cccc(I)c1` (stereo not shown) [Compound 12j, 2-(hydroxymethyl)-1-(3-iodobenzyl) Piperidine-3,4,5-triol], for which, in series [3], the half-inhibitory concentration (IC50) amounted to 10.54 ± 0.04 mM.

With `Cc1cccc(CN2CC(O)C(O)C(O)C2CO)c1` (stereo not shown) [Compound 12k, 2-(hydroxymethyl)-1-(3-methylbenzyl) Piperidine-3,4,5-triol], the IC50 in series [3] was 10.3 ± 0.21 mM.

Take `COc1cccc(CN2CC(O)C(O)C(O)C2CO)c1` (stereo not shown) [Compound 12l, 2-(hydroxymethyl)-1-(3-methoxybenzyl) Piperidine-3,4,5-triol]: the half-inhibitory concentration (IC50) in series [3] was 1.25 ± 0.34 mM.

`COc1cc(CN2C[C@H](O)[C@@H](O)[C@H](O)[C@H]2CO)cc(Br)c1OCc1ccccc1` [Compound 17b]: the IC50 in series [3] came to 15.68 ± 0.06 mM.

In the case of `COc1cc(CN2CC(O)C(O)C(O)C2CO)cc(Br)c1OC` (stereo not shown) [Compound 17c, 1-(3-bromo-4,5-dimethoxybenzyl)-2-(hydroxymethyl) Piperidine-3,4,5-triol], the IC50 in series [3] stood at 1.06 ± 0.11 mM.

Take `COc1cc(CN2CC(O)C(O)C(O)C2CO)c(Br)c(Br)c1OC` (stereo not shown) [Compound 17d, 1-(2,3-dibromo-4,5-dimethoxybenzyl)-2-(hydroxymethyl) Piperidine-3,4,5-triol]: the half-inhibitory concentration (IC50) in series [3] was determined as 1.14 ± 0.09 mM.

For `COc1c(Br)c(Br)c(CN2C[C@H](O)[C@@H](O)[C@H](O)[C@H]2CO)c(Br)c1OC` [Compound 17e, 2-(hydroxymethyl)-1-(2,3,6-tribromo-4,5-dimethoxybenzyl)-2-piperidine-3,4,5-triol], in series [3], the IC50 turned out to be 9.57 ± 0.08 mM.

The Ki is a measure of affinity in units of concentration, obtained from inhibition or displacement. For `COc1cc(CN2CC(O)C(O)C(O)C2CO)ccc1O` (stereo not shown) [Compound 18a, 1-(4-hydroxy-3-methoxybenzyl)-2-(hydroxymethyl) piperidine-3,4,5-triol], the IC50 in series [3] is 0.207 ± 0.11 mM. Further, the Vmax in series [1] is 3.56 ± 0.28 *10^−6 mmol/min. Further, the inhibitory constant (Ki) in series [1] (Ki = [I]/(K'm/Km − 1)) stood at 110 ± 300 µM.

Consider `COc1cc(CN2CC(O)C(O)C(O)C2CO)cc(Br)c1O` (stereo not shown) [Compound 18b, 1-(3-bromo-4-hydroxy-5-methoxybenzyl)-2-(hydroxymethyl) piperidine-3,4,5-triol], for which the IC50 in series [3] stood at 0.276 ± 0.13 mM.

In the case of `CN1C[C@H](O)[C@@H](O)[C@H](O)[C@H]1CO` [N-methyl-DNJ], in series [4] (setting [5]), the “initial t1/2 in plasma” value is 4.5 min and the “terminal t1/2 in plasma” value was 32 min. Further, the “dose recovered from the urine unchanged” value in series [4] (intravenous, at 120 min after administration) is reported as 80%.

The record behind these values is PMC6766931, “Design, Synthesis, and Activity Evaluation of Novel N-benzyl Deoxynojirimycin Derivatives for Use as α-Glucosidase Inhibitors” (Molecules, 2019).
